What was measured:
Test in all cases: Fluo-4 AM calcium flux in HEK293T cells
[1] = tested on: T1, HaIav/HaNan heterotetramer; format: cell-based, Harmonia axyridis; conditions: agonist; 2:2 molar ratio Iav/Nan
T1 construct: gene iav; ORFs co-expressed in HEK293T cells; 2:2 heterotetramer

[2] = tested on: T2, DcIav/DcNan heterotetramer; format: cell-based, Diaphorina citri; conditions: agonist; 2:2 molar ratio Iav/Nan
T2 construct: gene iav; ORFs co-expressed in HEK293T cells; 2:2 heterotetramer

[3] = target: T3, BdIav/BdNan heterotetramer (Bactrocera dorsalis, UniProt A0A8N4L2W2+A0ABM3JT49); format: cell-based
T3 construct: gene LOC105228865; ORFs co-expressed in HEK293T cells; 2:2 heterotetramer
T3 sequence (A0ABM3JT49 1-1159): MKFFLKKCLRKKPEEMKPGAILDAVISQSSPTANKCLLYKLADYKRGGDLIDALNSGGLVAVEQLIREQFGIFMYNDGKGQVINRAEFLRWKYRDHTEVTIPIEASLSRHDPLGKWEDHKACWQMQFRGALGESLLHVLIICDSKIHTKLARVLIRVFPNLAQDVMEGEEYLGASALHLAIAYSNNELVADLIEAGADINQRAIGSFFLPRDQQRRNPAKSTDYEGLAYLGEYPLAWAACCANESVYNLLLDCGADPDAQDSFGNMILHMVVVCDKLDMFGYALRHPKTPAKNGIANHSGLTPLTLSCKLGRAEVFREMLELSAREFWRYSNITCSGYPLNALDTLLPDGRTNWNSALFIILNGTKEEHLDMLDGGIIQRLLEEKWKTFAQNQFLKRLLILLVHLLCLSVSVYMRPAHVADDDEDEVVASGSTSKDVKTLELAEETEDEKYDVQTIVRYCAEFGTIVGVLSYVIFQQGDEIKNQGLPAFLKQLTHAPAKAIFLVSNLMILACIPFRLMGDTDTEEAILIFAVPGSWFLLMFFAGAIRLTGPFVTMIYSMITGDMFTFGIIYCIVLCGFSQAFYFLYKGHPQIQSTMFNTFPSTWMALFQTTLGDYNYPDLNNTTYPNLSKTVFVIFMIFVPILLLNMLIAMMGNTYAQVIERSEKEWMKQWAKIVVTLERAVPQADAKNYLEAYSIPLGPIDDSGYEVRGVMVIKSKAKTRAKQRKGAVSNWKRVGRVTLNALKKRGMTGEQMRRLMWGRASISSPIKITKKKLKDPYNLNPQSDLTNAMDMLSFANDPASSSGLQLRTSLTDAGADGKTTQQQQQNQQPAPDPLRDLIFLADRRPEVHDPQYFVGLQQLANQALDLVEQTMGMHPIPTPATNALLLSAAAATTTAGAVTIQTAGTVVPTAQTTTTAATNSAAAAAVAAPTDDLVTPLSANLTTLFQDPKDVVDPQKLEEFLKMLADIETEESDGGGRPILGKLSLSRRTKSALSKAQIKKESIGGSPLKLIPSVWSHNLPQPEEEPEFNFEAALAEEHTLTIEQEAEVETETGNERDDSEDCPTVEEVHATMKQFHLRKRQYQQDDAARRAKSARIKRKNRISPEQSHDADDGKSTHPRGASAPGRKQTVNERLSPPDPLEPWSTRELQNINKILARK
T3 sequence (A0A8N4L2W2 1-846): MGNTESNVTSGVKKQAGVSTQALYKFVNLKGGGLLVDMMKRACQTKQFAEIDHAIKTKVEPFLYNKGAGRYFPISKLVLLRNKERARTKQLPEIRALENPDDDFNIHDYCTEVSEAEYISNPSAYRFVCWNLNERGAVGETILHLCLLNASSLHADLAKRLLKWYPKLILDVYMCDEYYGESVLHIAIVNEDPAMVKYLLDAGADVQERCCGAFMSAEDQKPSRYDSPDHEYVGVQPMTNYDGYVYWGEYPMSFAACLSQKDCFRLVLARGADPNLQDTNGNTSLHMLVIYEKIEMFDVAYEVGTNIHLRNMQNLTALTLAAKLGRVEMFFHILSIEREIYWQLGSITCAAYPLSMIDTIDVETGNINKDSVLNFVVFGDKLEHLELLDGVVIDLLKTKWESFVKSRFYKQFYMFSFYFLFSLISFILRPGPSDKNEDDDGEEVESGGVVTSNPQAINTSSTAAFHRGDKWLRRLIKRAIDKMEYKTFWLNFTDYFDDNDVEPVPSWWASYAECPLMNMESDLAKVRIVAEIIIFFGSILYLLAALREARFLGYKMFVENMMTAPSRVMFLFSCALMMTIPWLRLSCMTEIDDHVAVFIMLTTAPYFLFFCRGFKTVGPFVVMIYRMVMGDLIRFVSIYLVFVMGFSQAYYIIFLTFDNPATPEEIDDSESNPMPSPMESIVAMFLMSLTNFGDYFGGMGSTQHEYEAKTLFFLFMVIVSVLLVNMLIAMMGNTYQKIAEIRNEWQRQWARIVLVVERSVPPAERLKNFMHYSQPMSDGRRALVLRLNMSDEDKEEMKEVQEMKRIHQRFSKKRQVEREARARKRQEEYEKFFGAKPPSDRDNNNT

[4] = tested on: T4, CcIav/CcNan heterotetramer; format: cell-based, Cacopsylla chinensis; conditions: agonist; 2:2 CcIav/CcNan
T4 construct: gene iav; full-length ORFs co-expressed in HEK293T cells from pcDNA3.1-mCherry-P2A; 2:2 heterotetramer

`COc1cc(CNC(=O)CCCC/C=C/C(C)C)ccc1O` [capsaicin] gave an EC50 [1] of 24.1 µM, an EC50 [2] of 57.8 µM and an EC50 [3] of 24.5 µM. It also gave an EC50 [4] of 0.0224 µM.

Source: article PMC12677633, “Thermosensory TRPV Heterotetramers Drive Seasonal Polyphenism: Molecular Basis of CcIav/CcNan‐PKCα‐AKH/AKHR Signaling in Pear Psyllid Morph Transition” (Advanced Science, 2025)
